{"source": "patent US6306907A", "about": "“Antipsychotic” (Taiyo Fishery Co., Ltd., priority 1992, dated 2001)", "key": {"NMDA receptors": {"system": "NMDA receptors", "assay": "Electrophysiological patch clamp test of the NMDA-induced current in hippocampal CA1 neurons", "format": "cell-based, rat", "description": "Under the circumstances, the effects of docosahexaenoic acid on NMDA receptors of PCP were investigated.\nThe investigation was conducted by an electrophysiological procedure. More specifically, the brain of a 2-week-old rat was delivered and slices were prepared. Then, neurons were taken from the hippocampal CA1 region and used as samples. An electrophysiological test was conducted by a patch clamp method under fixed potential conditions."}, "[1]": {"system": "negative symptoms of schizophrenia", "assay": "One-month oral administration to subjects, compared with placebo", "format": "in vivo", "conditions": "human, oral 300 mg three times a day", "description": "Sixteen subjects aged from 35 to 60 were treated with either the antipsychotic of the present invention or a placebo. Eleven out of these sixteen subjects had been treated with chlorpromazine and haloperidol in the past. Eight subjects were treated with the antipsychotic of the present invention and the other eight were treated with the placebo.\nDocosahexaenoic acid or placebo was orally administered to the subjects three times a day, each in a dose of 300 mg."}}, "data": [{"smiles": "CN[C@H](CC(=O)O)C(=O)O", "note": "[NMDA, N-methyl-D-aspartic acid]", "values": [{"measurement": "inward current caused by NMDA", "setting": "NMDA receptors; 30 μM NMDA, holding potential -50 mV, rat hippocampal CA1 neurons", "result": 300, "unit": "pA"}]}, {"smiles": "c1ccc(C2(N3CCCCC3)CCCCC2)cc1", "note": "[PCP, phencyclidine]", "values": [{"measurement": "change of NMDA-induced current on treatment with PCP", "setting": "NMDA receptors; 5 μM PCP and 30 μM NMDA", "result": "decreased by half"}]}, {"smiles": "CC/C=C\\C/C=C\\C/C=C\\C/C=C\\C/C=C\\C/C=C\\CCC(=O)O", "note": "[docosahexaenoic acid]", "values": [{"measurement": "primary side effects", "setting": "[1]", "result": "neither primary side effects"}, {"measurement": "variations in biochemical blood and urine tests", "setting": "[1]", "result": "nor significant variations in biochemical blood and urine tests"}]}]}
